{"source": "paper PMC4644980", "about": "“The FDA-approved natural product dihydroergocristine reduces the production of the Alzheimer’s disease amyloid-β peptides” (Scientific Reports, 2015)", "key": {"[1]": {"system": "γ-secretase (APP-CTF processing) in HEK293 cells", "test": "Western blot of endogenous APP-FL and APP-CTF in HEK293 cells", "type": "cell-based", "conditions": "24 h", "procedure": "(§3) The levels of β-actin were used as equal loading controls. […] The levels of β-actin served as equal loading controls.\n(§4) Western Blot analysis of full-length APP, APP-CTFs, Notch1-NICD and γ-secretase components was carried out according to the procedures described in the Supplementary information[31]."}, "[2]": {"system": "Aβ production in HEK293 cells", "test": "Aβ total ELISA of media from HEK293 cells", "type": "cell-based", "protocol": "(§1) The levels of β-actin were used as equal loading controls. […] The Aβ data are expressed as a percentage of the control value and presented as the means ± sd. […] Fibroblast cells from an AD patient carrying the PS1 missense mutation A246E were treated with various compounds, and the levels of APP-FL, APP-CTF and β-actin, as well as Aβ, were measured as described above. The Aβ data are expressed as a percentage of the control value and presented as the means ± sd. (n = 3). […] The levels of β-actin served as equal loading controls. The densitometric quantifications for the Western Blots are shown in Supplementary Fig. S2. For full blots, please see Supplementary Fig. S9.\n(§2) Aβ1-x peptides secreted in the cell media were quantitatively measured by ELISA (IBL, Gunma, Japan) according to the standard protocol from the manufacturer. Aβ40 and Aβ42 generated in the C100-Flag γ-secretase assays stopped with 0.5% SDS (final concentration) were quantified with the human Beta Amyloid or [1–42] colorimetric ELISA kit, respectively."}, "[3]": {"system": "endogenous γ-secretase in fibroblast cells from an AD patient", "test": "Western blot of APP-CTF in fibroblast cells from an AD patient (PS1 A246E)", "type": "cell-based, human", "conditions": "dose series", "procedure": "Fibroblast cells from an AD patient carrying the PS1 missense mutation A246E were treated with various compounds, and the levels of APP-FL, APP-CTF and β-actin, as well as Aβ, were measured as described above. […] (n = 3). […] The levels of β-actin served as equal loading controls.\nas §4"}, "[4]": {"system": "Aβ production in fibroblast cells from an AD patient", "test": "Aβ total ELISA of media from fibroblast cells from an AD patient (PS1 A246E)", "type": "cell-based, human", "protocol": "as §1, §2"}, "[5]": {"system": "human Notch1 extracellular truncation (NEXT) cleavage by γ-secretase", "test": "cleavage of human Notch1 NEXT (NICD Western blot) in HEK293 cells", "type": "cell-based", "procedure": "as §3, §4"}, "[6]": {"system": "γ-secretase subunits (mNCT, PS1-NTF)", "test": "Western blot of γ-secretase subunits in HEK293 or fibroblast cells", "type": "cell-based", "protocol": "for 10 min before adding 25 µl of the stop solution. The fluorescence was monitored with a microplate reader (emission at 590 nm after excitation at 560 nm).\nWestern blot and antibodies\nWT HEK293 or fibroblast cells were collected and lysed in 1% Nonidet P-40-HEPES buffer, and equal amounts of proteins [normalized by BCA (Pierce)] were separated by SDS-PAGE onto a 12% Tris-glycine gel, transferred onto a PVDF membrane (Bio-Rad, USA) and further probed with antibody CT15 (for APP/APP-CTFs, 1:2000, […]\n(1:1000; Abcam, Cambridge, MA, USA) for PS1-NTF, UD-1 (for Pen-2, 1:500; a gift of Dr. Helena Karlström, Karolinska Institute, Sweden), NCT164 (for NCT, 1:1000; BD Bioscience, Bedford, MA, USA) as well as with an antibody for β-actin (1:2000, Abmart). For the analysis of Notch NICD, cell extracts were separated by SDS-PAGE onto a 10% Tris-glycine gel, transferred onto a PVDF membrane and blotted for NICD with an anti-Notch Ab1744 antibody (for the free N-terminus of NICD, 1:500, Cell Signaling Technology, Beverly, MA, USA).\nSamples from in vitro γ-secretase activity assays were run on 16% Tricine-SDS-PAGE gels and transferred onto PVDF to detect Aβ and AICD-Flag with 6E10 (1:1000, Covance, Berkeley, CA, USA) and CT15 antibodies (1:5000, Sigma-Aldrich), […]"}, "γ-secretase": {"molecular_target": "γ-secretase (Homo sapiens, UniProt P49768+Q92542)", "test": "cell-based luciferase reporter assay for γ-secretase inhibition (T100 cells)", "parameters": "endogenous in cells; host or cells: T-REx HeLa cells (T100) stably transfected with the substrate C99-Gal4-VP16 and a luciferase reporter", "conditions": "24 h, read-out: IC50, inhibition of APP-C99 processing", "protocol": "To identify natural product-based bioactive inhibitors of γ-secretase, we screened 417 natural products by using a cell-based luciferase reporter assay for γ-secretase inhibition (T100, see Methods), which we recently developed in TREx HeLa cells according to the methodology described in ref. [17]. […] Thus, this assay is sufficiently sensitive to detect the inhibitory effects of 100 nM DAPT on cellular γ-secretase activity. Additionally, this new cell-based assay tolerated up to 2% DMSO, which is a great advantage when screening inhibitors in a high-throughput format.\nT-REx-HeLa cells (T100) stably overexpressing C99-Gal4-VP16 and luciferase were generated according to the method described in refs [17],[30]. For details, see Supplementary Information.\nCell-based γ-secretase assays were performed using the T100 cell line according to the methods detailed in ref. [30] (for details, see Supplementary information). […]\nconcentrations of substrate at 37 °C for 4 h, after which the enzymatic reactions were stopped by adding 0.5% SDS (final concentration). The samples were analyzed by Western Blot for AICD-Flag or Aβ. […]"}}}
{"smiles": "C[C@H](NC(=O)Cc1cc(F)cc(F)c1)C(=O)N[C@H](C(=O)OC(C)(C)C)c1ccccc1", "note": "[DAPT, N-[N-(3,5-difluorophenylacetyl)-L-alanyl-]-(S)-phenylglycine-t-butyl ester]", "values": [{"measurement": "accumulation of the carboxy-terminal fragments of APP (APP-CTFs)", "setting": "[1]", "result": "dose-dependent accumulation"}, {"measurement": "total Aβ levels", "setting": "[2]", "result": "markedly reduced"}, {"measurement": "accumulation of APP-CTFs", "setting": "[3]", "result": "dose-dependent accumulation"}, {"measurement": "total Aβ levels", "setting": "[4]", "result": "markedly reduced"}, {"measurement": "preference for APP-based versus Notch-based substrate", "setting": "[5]; HEK293 cells overexpressing hAPP or Notch1-NEXT", "result": "showed no preference"}, {"measurement": "production of intracellular human NICD", "setting": "[5]; HEK293 cells overexpressing human NEXT, 1 μM", "result": "completely blocked"}, {"measurement": "assembly and maturation of the protease complex (mNCT, PS1-NTF)", "setting": "[6]", "result": "not altered"}, {"measurement": "IC50", "setting": "γ-secretase", "result": "~200", "unit": "nM"}]}
